Key:
Type in all cases: in vivo
Abutilon theophrasti [1] = assay: Post-emergence herbicidal efficacy at 320 g/ha, ABUTH; conditions: rated visually after about 3 weeks vs untreated controls, 100% = plants have died
Description: (§1) Unwanted plants/weeds: • ABUTH: Abutilon theophrasti • ALOMY: Alopecurus myosuroides • AMARE: Amaranthus retroflexus • DIGSA: Digitaria sanguinalis • ECHCG: Echinochloa crus-galli • KCHSC: Kochia scoparia • LOLRI: Lolium rigidum • MATIN: Matricaria inodora • POAAN: Poa annua • POLCO: Polygonum convolvulus • SETVI: Setaria viridis • STEME: Stellaria media • VERPE: Veronica persica • VIOTR: Viola tricolor A. Post-Emergence Herbicidal Efficacy at 320 g/ha
(§2) Seeds of mono- and dicotyledonous weed plants were placed in plastic pots in sandy loam soil (doubly sown with in each case one species of mono- or dicotyledonous weed plants per pot), covered with soil and cultivated in a greenhouse under controlled growth conditions. 2 to 3 weeks after sowing, the test plants were treated at the one-leaf stage. The compounds of the invention, formulated in the form of wettable powders (WP) or as emulsion concentrates (EC), were applied to the green parts of the plants as aqueous suspension or emulsion with addition of 0.5% additive at a water application rate equivalent to 600 litres per hectare. After the test plants had been kept in the greenhouse under optimum growth conditions for about 3 weeks, the activity of the preparations was rated visually in comparison to untreated controls.
(§3) For example, 100% activity=the plants have died, 0% activity=like control plants.
(§4) Tables A1 to A10 below show the effects of selected compounds of the general formula (I) according to Table 1 on various harmful plants and at an application rate corresponding to 320 g/ha, which were obtained by the trial procedure specified above.

Amaranthus retroflexus [2] = assay: Post-emergence herbicidal efficacy at 320 g/ha, AMARE; conditions: rated visually after about 3 weeks vs untreated controls, 100% = plants have died
Description: as §1, §2, §3, §4

Echinochloa crus-galli [3] = assay: Post-emergence herbicidal efficacy at 320 g/ha, ECHCG; conditions: rated visually after about 3 weeks vs untreated controls, 100% = plants have died
Description: as §1, §2, §3, §4

Stellaria media [4] = assay: Post-emergence herbicidal efficacy at 320 g/ha, STEME; conditions: rated visually after about 3 weeks vs untreated controls, 100% = plants have died
Description: as §1, §2, §3, §4

Veronica persica [5] = assay: Post-emergence herbicidal efficacy at 320 g/ha, VERPE; conditions: rated visually after about 3 weeks vs untreated controls, 100% = plants have died
Description: as §1, §2, §3, §4

Abutilon theophrasti [6] = assay: Pre-emergence herbicide efficacy at 320 g/ha, ABUTH; conditions: scored visually after about 3 weeks vs untreated controls, 100% = plants have died
Description: as §1
(§5) Seeds of mono- and dicotyledonous weed plants were placed in plastic pots in sandy loam soil (doubly sown with one species each of mono- or dicotyledonous weed plants per pot) and covered with soil. The compounds of the invention, formulated in the form of wettable powders (WP) or as emulsion concentrates (EC), were then applied to the surface of the covering soil as aqueous suspension or emulsion with addition of 0.5% additive at a water application rate of 600 litres per hectare (converted). After the treatment, the pots were placed in a greenhouse and kept under good growth conditions for the test plants. After about 3 weeks, the efficacy of the preparations was scored visually in comparison with untreated controls as percentages.
as §3
(§6) Tables C1 to C12 below show the effects of selected compounds of the general formula (I) according to Table 1 on various harmful plants and at an application rate corresponding to 320 g/ha, which were obtained by the trial procedure specified above.

Amaranthus retroflexus [7] = assay: Pre-emergence herbicide efficacy at 320 g/ha, AMARE; conditions: scored visually after about 3 weeks vs untreated controls, 100% = plants have died
Description: as §1, §5, §3, §6

Digitaria sanguinalis = assay: Pre-emergence herbicide efficacy at 320 g/ha, DIGSA; conditions: scored visually after about 3 weeks vs untreated controls, 100% = plants have died
Description: as §1, §5, §3, §6

Echinochloa crus-galli [8] = assay: Pre-emergence herbicide efficacy at 320 g/ha, ECHCG; conditions: scored visually after about 3 weeks vs untreated controls, 100% = plants have died
Description: as §1, §5, §3, §6

Poa annua = assay: Pre-emergence herbicide efficacy at 320 g/ha, POAAN; conditions: scored visually after about 3 weeks vs untreated controls, 100% = plants have died
Description: as §1, §5, §3, §6

Setaria viridis = assay: Pre-emergence herbicide efficacy at 320 g/ha, SETVI; conditions: scored visually after about 3 weeks vs untreated controls, 100% = plants have died
Description: as §1, §5, §3, §6

Stellaria media [9] = assay: Pre-emergence herbicide efficacy at 320 g/ha, STEME; conditions: scored visually after about 3 weeks vs untreated controls, 100% = plants have died
Description: as §1, §5, §3, §6

Veronica persica [10] = assay: Pre-emergence herbicide efficacy at 320 g/ha, VERPE; conditions: scored visually after about 3 weeks vs untreated controls, 100% = plants have died
Description: as §1, §5, §3, §6

Kochia scoparia [11] = assay: Post-emergence herbicidal efficacy at 320 g/ha, KCHSC; conditions: rated visually after about 3 weeks vs untreated controls, 100% = plants have died
Description: as §1, §2, §3, §4

Kochia scoparia [12] = assay: Pre-emergence herbicide efficacy at 320 g/ha, KCHSC; conditions: scored visually after about 3 weeks vs untreated controls, 100% = plants have died
Description: as §1, §5, §3, §6

Veronica persica [13] = assay: Post-emergence herbicidal efficacy at 80 g/ha, VERPE; conditions: rated visually after about 3 weeks vs untreated controls, 100% = plants have died
Description: as §1
(§7) Seeds of monocotyledonous and dicotyledonous weeds and crop plants were placed in sandy loam in plastic or organic planting pots, covered with soil and cultivated in a greenhouse under controlled growth conditions. 2 to 3 weeks after sowing, the test plants were treated at the one-leaf stage. The compounds of the invention, formulated in the form of wettable powders (WP) or as emulsion concentrates (EC), were then sprayed onto the green parts of the plants as aqueous suspension or emulsion with addition of 0.5% additive at a water application rate of 600 l/ha (converted). After the test plants had been kept in the greenhouse under optimum growth conditions for about 3 weeks, the activity of the preparations was rated visually in comparison to untreated controls. For example, 100% activity=the plants have died, 0% activity=like control plants.
(§8) Tables B1 to B11 below show the effects of selected compounds of the general formula (I) according to Table 1 on various harmful plants and an application rate corresponding to 80 g/ha, which were obtained by the experimental procedure mentioned above.

Amaranthus retroflexus [14] = assay: Post-emergence herbicidal efficacy at 80 g/ha, AMARE; conditions: rated visually after about 3 weeks vs untreated controls, 100% = plants have died
Description: as §1, §7, §8

Kochia scoparia [15] = assay: Post-emergence herbicidal efficacy at 80 g/ha, KCHSC; conditions: rated visually after about 3 weeks vs untreated controls, 100% = plants have died
Description: as §1, §7, §8

SMILES	Post-emergence efficacy at 320 g/ha against ABUTH in % (Abutilon theophrasti [1]) [%]	Post-emergence efficacy at 320 g/ha against AMARE in % (Amaranthus retroflexus [2]) [%]	Post-emergence efficacy at 320 g/ha against STEME in % (Stellaria media [4]) [%]	Post-emergence efficacy at 320 g/ha against VERPE in % (Veronica persica [5]) [%]	Pre-emergence efficacy at 320 g/ha against AMARE in % (Amaranthus retroflexus [7]) [%]	Pre-emergence efficacy at 320 g/ha against DIGSA in % (Digitaria sanguinalis) [%]	Pre-emergence efficacy at 320 g/ha against SETVI in % (Setaria viridis) [%]	Pre-emergence efficacy at 320 g/ha against STEME in % (Stellaria media [9]) [%]	Post-emergence efficacy at 320 g/ha against KCHSC in % (Kochia scoparia [11]) [%]	also measured
Cc1cccc(Nc2ncc(F)cn2)c1-n1cc(C(F)(F)F)cn1 [Example 1-50]	90	90	90	90	100	90	100	100		Post-emergence efficacy at 320 g/ha against ECHCG in % (Echinochloa crus-galli [3]): 90%; Pre-emergence efficacy at 320 g/ha against ABUTH in % (Abutilon theophrasti [6]): 100%; Pre-emergence efficacy at 320 g/ha against ECHCG in % (Echinochloa crus-galli [8]): 100%; Pre-emergence efficacy at 320 g/ha against POAAN in % (Poa annua): 90%; Pre-emergence efficacy at 320 g/ha against VERPE in % (Veronica persica [10]): 90%
FC(F)(F)CCCc1ccccc1Nc1ncc(Cl)cn1 [Example 1-1]	90	90		90	90		90			
Fc1cccc(Nc2ncccn2)c1-c1cc(C(F)F)no1 [Example 1-35]	100	100	100	100	100	90	90	100	100	Pre-emergence efficacy at 320 g/ha against ABUTH in % (Abutilon theophrasti [6]): 100%; Pre-emergence efficacy at 320 g/ha against KCHSC in % (Kochia scoparia [12]): 100%; Pre-emergence efficacy at 320 g/ha against POAAN in % (Poa annua): 100%; Pre-emergence efficacy at 320 g/ha against VERPE in % (Veronica persica [10]): 90%
Cc1ccc(Nc2ncc(Cl)cn2)c(-n2cc(C(F)(F)F)cn2)c1C#N [Example 1-45]								100		
Fc1cnc(Nc2ccccc2-n2cc(C(F)(F)F)cn2)nc1 [Example 1-77]										Post-emergence efficacy at 80 g/ha against VERPE in % (Veronica persica [13]): 80%
Cc1ccc(Nc2ncc(F)cn2)c(-n2cc(C(F)(F)F)cn2)c1C#N [Example 1-46]		90		90		90				
O=C(CCCC(F)(F)F)c1cccnc1Nc1ncc(Cl)cn1 [Example 2-8]										Post-emergence efficacy at 80 g/ha against AMARE in % (Amaranthus retroflexus [14]): 100%; Post-emergence efficacy at 80 g/ha against KCHSC in % (Kochia scoparia [15]): 90%; Post-emergence efficacy at 80 g/ha against VERPE in % (Veronica persica [13]): 90%
COCc1cnn(-c2c(C#N)cccc2Nc2ncc(F)cn2)c1 [Example 1-69]	90	100	100	100	100		90	100		
Cc1cccc(Nc2ncc(Cl)cn2)c1-n1cc(C(F)(F)F)cn1 [Example 1-49]	90	90	90	90	100	90	100			Post-emergence efficacy at 320 g/ha against ECHCG in % (Echinochloa crus-galli [3]): 90%; Pre-emergence efficacy at 320 g/ha against POAAN in % (Poa annua): 100%; Pre-emergence efficacy at 320 g/ha against VERPE in % (Veronica persica [10]): 100%
N#Cc1c(Cl)ccc(Nc2ncc(Cl)cn2)c1-n1cc(C(F)(F)F)cn1 [Example 1-43]		100							100	Post-emergence efficacy at 80 g/ha against AMARE in % (Amaranthus retroflexus [14]): 90%
N#Cc1cccc(Nc2ncc(Cl)cn2)c1-n1cc(Cl)cn1 [Example 1-72]		100		90	100	90	90		90	Pre-emergence efficacy at 320 g/ha against KCHSC in % (Kochia scoparia [12]): 90%; Pre-emergence efficacy at 320 g/ha against VERPE in % (Veronica persica [10]): 90%
Cc1cc(C)c(-c2cc(C(F)F)no2)c(Nc2ncc(Cl)cn2)n1 [Example 2-4]			100					90	90	
FC(F)c1cc(-c2c(Cl)cccc2Nc2ccc(Cl)cn2)on1 [Example 1-74]										Post-emergence efficacy at 80 g/ha against AMARE in % (Amaranthus retroflexus [14]): 80%; Post-emergence efficacy at 80 g/ha against VERPE in % (Veronica persica [13]): 80%
COc1cnc(Nc2cccc(F)c2-c2cc(C(F)F)no2)nc1 [Example 1-37]	100	90		90	100	100	100	100	90	Pre-emergence efficacy at 320 g/ha against ABUTH in % (Abutilon theophrasti [6]): 90%; Pre-emergence efficacy at 320 g/ha against KCHSC in % (Kochia scoparia [12]): 90%; Pre-emergence efficacy at 320 g/ha against POAAN in % (Poa annua): 100%
Fc1cnc(Nc2ccccc2SCCCC(F)(F)F)nc1 [Example 1-7]	90	100	90	100	90				90	
N#Cc1cccc(Nc2ncc(Cl)cn2)c1-n1cccn1 [Example 1-64]		100	90	90	100	90	100		100	Pre-emergence efficacy at 320 g/ha against KCHSC in % (Kochia scoparia [12]): 90%

— US20250311727A1, “SUBSTITUTED 2-AMINOAZINES AND SALTS THEREOF, AND USE THEREOF AS HERBICIDAL ACTIVE SUBSTANCES” (BAYER AKTIENGESELLSCHAFT, priority 2022, published 2025)
